Blank lines part the entries; values can stand above or below the molecule they belong to.
What was measured:
[1] = test system: atherosclerotic human sections (carotid artery); assay: Ex vivo MRI and Gd quantification on human carotid endarterectomy sections; details: 18 h incubation, 30 min washing
Description: Samples of fresh carotid artery were obtained from patients (n=21) undergoing carotid endarterectomy. Specimen consisted of the common carotid artery, as well as the internal and external carotid arteries. The excised plaques were rinsed in ice-cold saline and they were used in the 2-4 hours following surgery.
(§1) Finally, both rabbits and human atherosclerotic segments were cut in exactly 3.0 mm-thick sections, before their contact with the contrast medium and ex vivo imaging.
Ex vivo incubation—All the slices were deposited in a 24-wells culture plate. […] After pre-determined incubation periods of 1 h, 3 h or 18 h, the slices originating from the WHHL rabbits were either immediately imaged, or subjected to a washing during 30 min, 1 h or 3 h (n=3 for each condition) in 10.0 ml of Krebs-Ringer bicarbonate buffer, with the medium being replaced every hour. […]
Detection of the contrast media by ex vivo imaging and Gd quantification—For ex vivo MRI, the aortic slices were transferred in a new 24-wells plate and embedded in a semi-solid agar-agar gel (0.8% m/v) at room temperature. […] Finally, the gel was removed from the aortic segments and the Gd contained in each precisely weighed sample was quantified by ICP-MS after acidic mineralization.

[2] = test system: artery slices originating from Watanabe Heritable Hyperlipidemic rabbits; assay: Ex vivo MRI and Gd quantification on WHHL rabbit artery slices; details: for ex vivo MRI enhancement of the sections / amount of Gd in the sections by ICP-MS (mean value): after 1 h; for ex vivo MRI enhancement of the sections: 3 h or 18 h incubation; for amount of Gd in the sections by ICP-MS (mean value): 3 h or 18 h incubation at 5×10^−4 M Gd, no washing
Text: Specimen preparation—Watanabe Heritable Hyperlipidemic rabbits (CAP, Olivet, France), which develop hypercholesterolemia and subsequent atherosclerosis due to a genetic deficiency of LDL receptors, were profoundly anaesthetized. After their sacrifice by exsanguination, the arterial tree, comprising the aortic arch with the beginning of the efferent arteries, as well as the thoracic aorta and the supra-renal abdominal aorta, was removed in one block and flushed with heparinized Krebs-Ringer Bicarbonate buffer (pH=7.4) in order to clean any remaining blood. The arterial specimen was then kept frozen at −20° C.; it was gently and extemporarily unfrozen for experimental purpose.
as §1
Ex vivo incubation—All the slices were deposited in a 24-wells culture plate. They were then incubated under stirring at 37° C., in 1.0 ml of Krebs-Ringer Bicarbonate buffer (pH=7.4), Gd-DOTA or compound B (at a Gd concentration of 5×10^−4 M). After pre-determined incubation periods of 1 h, 3 h or 18 h, the slices originating from the WHHL rabbits were either immediately imaged, or subjected to a washing during 30 min, 1 h or 3 h (n=3 for each condition) in 10.0 ml of Krebs-Ringer bicarbonate buffer, with the medium being replaced every hour. Regarding human samples, only the protocol which allowed the best differentiation between the compounds (i.e. an incubation period of 18 h, followed by a washing of 30 min) was applied. Afterwards, all the slices were drained and prepared for ex vivo imaging. Further the protocol was applied both regarding to lesional plaques and not lesional plaques specimens.
Specificity testing—To additionally test the specificity of the compound B uptake, we repeated the ex vivo 18 h-incubation with a new set of WHHL rabbit atherosclerotic slices which were previously incubated during 30 min with the hydroxamate peptide, at a 10 times higher concentration than COMPOUND B (i.e. 5×10^−3 M). The samples were subsequently washed during 30 min, as previously described.
Detection of the contrast media by ex vivo imaging and Gd quantification—For ex vivo MRI, the aortic slices were transferred in a new 24-wells plate and embedded in a semi-solid agar-agar gel (0.8% m/v) at room temperature. Images were performed on a 2.35 T MRI system (Biospec, Bruker, Germany), using a 7 cm inner diameter birdcage coil and a 200 mT/m insert gradient. A 3D T1w SNAP sequence was acquired with following parameters (TR/TE/α=20 ms/4.2 ms/75°, Matrix 256*256*16, resolution 235*175*1000 μm^3, duration 21′49″) to have a compromise between resolution, short duration for screening and sections localization. Finally, the gel was removed from the aortic segments and the Gd contained in each precisely weighed sample was quantified by ICP-MS after acidic mineralization.

[3] = target: T1, human MMP-2 (Homo sapiens, UniProt P08253); assay: In vitro MMP inhibition assay (fluorimetric), MMP-2; assay type: biochemical; details: for inhibitory activity on MMP-2 (in words): concentration of 1.0E-05 M; for % inhibition of control values: mean of duplicate
T1 construct: endogenous in cells; host or cells: human rheumatoid synovial fibroblast
T1 sequence (P08253 110-660): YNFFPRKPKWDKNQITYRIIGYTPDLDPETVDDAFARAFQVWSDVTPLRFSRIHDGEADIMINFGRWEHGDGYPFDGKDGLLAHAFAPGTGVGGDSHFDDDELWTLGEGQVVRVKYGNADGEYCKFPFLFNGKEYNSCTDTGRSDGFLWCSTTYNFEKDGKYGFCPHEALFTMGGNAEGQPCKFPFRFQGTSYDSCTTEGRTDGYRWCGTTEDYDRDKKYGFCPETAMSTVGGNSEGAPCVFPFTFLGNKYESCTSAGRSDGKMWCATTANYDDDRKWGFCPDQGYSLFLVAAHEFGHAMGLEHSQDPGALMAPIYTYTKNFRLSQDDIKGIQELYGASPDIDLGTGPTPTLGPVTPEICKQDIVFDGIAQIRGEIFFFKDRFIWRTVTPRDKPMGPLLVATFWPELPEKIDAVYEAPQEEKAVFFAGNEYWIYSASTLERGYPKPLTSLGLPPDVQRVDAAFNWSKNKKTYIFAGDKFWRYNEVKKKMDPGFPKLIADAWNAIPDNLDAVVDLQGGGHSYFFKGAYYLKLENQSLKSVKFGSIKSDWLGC
Description: The reaction was based on the formation of a fluorescent compound produced after MMP-cleavage of a substrate (see table 1 for experimental conditions). […] For the control sample, the contrast agent or the peptide was replaced by water. After a pre-incubation period of 30 min at 37° C., the fluorescence intensity was measured using a microplate reader (GeminiXS, Molecular Devices), in order to detect any compound interference with the fluorimetric assay (═F1). The enzymatic reaction was then initiated by the addition of the MMP substrate and the mixture was again incubated at 37° C. After a pre-determined time, a second fluorescent measurement was performed (═F2). The enzyme activity was determined by subtracting the signal F1 from F2, and the results were expressed as a percent inhibition of the control enzyme activity.

[4] = Biodistribution assay in ApoE-KO mice (Gd by ICP-MS); assay type: in vivo; details: C57Bl/6 background, mouse, plasma, iv, 100 μmol Gd/kg, i.v., read-out: half-life of elimination in plasma
Description: (§2) Animals—the tissue distribution of compound B, when compared to Gd-DOTA, was performed in ApoE-KO mice in a 100% C57Bl/6 background. The animals were bred and housed in the Animal Experiment Unit of the Center of Molecular and Vascular Biology, Leuven, Belgium, and had free access to food and water.
(§3) ApoE-KO mice of 11-12 weeks were fed a cholesterol-rich Western-type diet (Tecklad, Madison, USA) for 4 months. This model of atherosclerosis was fully characterized: it contained extensive atherosclerotic plaques in the heart and aortic arch, where the plaques occupied 34% of the total lumen area. […] Biodistribution—After the diet period, animals were matched for sex and body weight. compounfd B or Gd-DOTA was administered intravenously via the tail vein (n=7/compound), at a clinical dose of 100 μmol Gd/kg. 60 min post-injection, the animals were anaesthetized and blood was obtained via eye bleeding. The mice were then subjected to a transcardiac perfusion with heparinized saline, in order to clear the intravascular compartment from any residual circulating contrast agent. Muscle and different organs (kidney, liver) were removed, as well as some artery specimens (aortic arch, carotid arteries, thoracic aorta, abdominal aorta and femoral artery). Finally, an aliquot of the blood sample was centrifuged and the Gd^3+ contained in all the collected samples was quantified by induced coupled plasma—mass spectrometry (ICP-MS) after acidic mineralization.

[5] = test system: ApoE-KO mice; assay: as above; assay type: in vivo
Description: as §2, §3

[6] = target: T2, human MMP-1 (Homo sapiens, UniProt P03956); assay: In vitro MMP inhibition assay (fluorimetric), MMP-1; assay type: biochemical; details: for inhibitory activity on MMP-1 (in words): concentration of 1.0E-05 M; for % inhibition of control values: mean of duplicate
T2 construct: endogenous in cells; host or cells: human rheumatoid synovial fibroblast
T2 sequence (P03956 100-469): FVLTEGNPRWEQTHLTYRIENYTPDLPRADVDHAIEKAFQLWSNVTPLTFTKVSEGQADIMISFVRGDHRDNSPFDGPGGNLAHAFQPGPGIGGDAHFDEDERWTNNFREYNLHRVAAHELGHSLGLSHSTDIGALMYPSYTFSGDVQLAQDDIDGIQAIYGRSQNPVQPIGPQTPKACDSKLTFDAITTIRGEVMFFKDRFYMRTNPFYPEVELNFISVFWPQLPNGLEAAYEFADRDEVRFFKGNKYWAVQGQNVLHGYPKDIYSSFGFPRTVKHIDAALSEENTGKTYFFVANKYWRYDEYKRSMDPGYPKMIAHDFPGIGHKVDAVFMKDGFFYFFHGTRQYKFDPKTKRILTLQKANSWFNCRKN
Description: (§4) The ability of compound B or the corresponding peptide hydroxamate to inhibit MMP-1, MMP-2 or MMP-3 activity was tested in vitro, on human enzymes. The reaction was based on the formation of a fluorescent compound produced after MMP-cleavage of a substrate (see table 1 for experimental conditions). Briefly, compound B or the peptide alone was added at 3 different concentrations to a buffer containing the MMP to test. For the control sample, the contrast agent or the peptide was replaced by water. After a pre-incubation period of 30 min at 37° C., the fluorescence intensity was measured using a microplate reader (GeminiXS, Molecular Devices), in order to detect any compound interference with the fluorimetric assay (═F1). The enzymatic reaction was then initiated by the addition of the MMP substrate and the mixture was again incubated at 37° C. After a pre-determined time, a second fluorescent measurement was performed (═F2). The enzyme activity was determined by subtracting the signal F1 from F2, and the results were expressed as a percent inhibition of the control enzyme activity.

[7] = target: T3, human MMP-3 (Homo sapiens, UniProt P08254); details: reported value; cited from earlier work
T3 construct: made in house; host or cells: Sf9 insect cells
T3 sequence (P08254 100-477): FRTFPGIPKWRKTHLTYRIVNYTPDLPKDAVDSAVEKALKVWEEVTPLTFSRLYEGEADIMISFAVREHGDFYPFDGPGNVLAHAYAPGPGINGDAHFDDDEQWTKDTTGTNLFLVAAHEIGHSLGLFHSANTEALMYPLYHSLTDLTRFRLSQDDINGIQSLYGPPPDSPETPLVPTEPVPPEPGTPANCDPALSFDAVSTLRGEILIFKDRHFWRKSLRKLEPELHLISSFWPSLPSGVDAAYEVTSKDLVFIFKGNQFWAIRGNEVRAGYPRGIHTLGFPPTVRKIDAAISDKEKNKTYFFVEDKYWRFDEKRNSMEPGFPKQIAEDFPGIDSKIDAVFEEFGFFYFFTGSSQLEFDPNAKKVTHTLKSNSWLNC

[8] = target: T1, human MMP-2; details: reported value; cited from earlier work
[9] = target: T2, human MMP-1; details: reported value; cited from earlier work
[10] = target: T3, human MMP-3; assay: In vitro MMP inhibition assay (fluorimetric), MMP-3; assay type: biochemical; details: for % inhibition of control values: mean of duplicate
Description: as §4

amount of Gd in the sections by ICP-MS (mean value) [2]: 5-11 nmol/section
inhibitory activity on MMP-2 (in words) [3]: effective
inhibitory activity on MMP-1 (in words) [6]: effective
Molecule: CC(C)C[C@@H](NC(=O)[C@@H]1CCCN1C(=O)CNC(=O)c1ccc(NC(=S)Nc2ccc(CCC(C(=O)O)N3CCN(CC(=O)O)CCN(CC(=O)O)CCN(CC(=O)O)CC3)cc2)cc1)C(=O)N[C@@H](C)C(=O)NO (some centres unmarked) [Compound B]
enhancement of atherosclerotic human sections (MRI ex vivo and Gd quantification) [1]: able to enhance
ex vivo MRI enhancement after inhibition/competition with free peptide ([2]; 30 min preliminary incubation with free peptide 5×10^−3 M, then 18 h incubation, 30 min washing): very faint enhancement
ex vivo MRI enhancement of the sections [2]: strong but more delineated enhancement
mean Gd concentration after washing ([2]; incubated 3 h or 18 h, after 30 min and 1 h of washing): 1-8 nmol/section
half-life [4]: 15 min
concentration in the arterial wall compared to Dotarem ([5]; artery specimen, 60 min post-injection, p<0.01): 3-3.5 times

amount of Gd in the sections by ICP-MS (mean value) [2]: 3-9 nmol/section
half-life of elimination in plasma ([5]; i.v.): 15 min
Molecule: O=C([O-])CN1CCN(CC(=O)[O-])CCN(CC(=O)O)CCN(CC(=O)[O-])CC1.[Gd+3] [Gd-DOTA, gadoteric acid]
enhancement of atherosclerotic human sections (MRI ex vivo and Gd quantification) [1]: not
Gd concentration after first washing step (mean value) ([2]; after 30 min washing): < 0.8 nmol/section
ex vivo MRI enhancement of the sections [2]: strong, but diffuse, enhancement

% inhibition of control values ([3]; MMP-2, test concentration 1.0E−04 M): 94%
% inhibition of control values ([3]; MMP-2, test concentration 1.0E−05 M): 68%
% inhibition of control values ([3]; MMP-2, test concentration 1.0E−07 M): 5%
inhibitory activity on MMP-2 (in words) [3]: effective
inhibitory activity on MMP-3 (in words) [10]: no activity
% inhibition of control values ([10]; MMP-3, test concentration 1.0E−05 M): 8%
% inhibition of control values ([10]; MMP-3, test concentration 1.0E−07 M): 4%
% inhibition of control values ([10]; MMP-3, test concentration 1.0E−09 M): 0%
% inhibition of control values ([6]; MMP-1, test concentration 1.0E−05 M): 46%
% inhibition of control values ([6]; MMP-1, test concentration 1.0E−07 M): 10%
% inhibition of control values ([6]; MMP-1, test concentration 1.0E−09 M): 9%
inhibitory activity on MMP-1 (in words) [6]: effective
Molecule: p-aminobenzoyl-Gly-Pro-D-Leu-D-Ala-NHOH [Peptide]
IC50 [7]: 150 µM
IC50 [8]: 30 µM
IC50 [9]: 1 µM

From patent publication US20060239913A1, “Peptide conjugate for magnetic resonance imaging” (priority 2003, published 2006)
